What was measured:
Assay type in all cases: in vivo
H22 tumor cell = assay: Tumor growth inhibition, H22 tumor in mice; details: 12 mg/kg i.p., four injections; 15th day after inoculation
Protocol: Cisplatin implant prepared according to Example 5 was used in this study. Ascites fluid was taken from d7 H22 passage mice under sterile conditions, and the ascites fluid was diluted with normal saline to prepare tumor cell suspension at a concentration of 1.0×10^7 cells/ml. Each mouse received a subcutaneous injection of 0.2 ml tumor cell suspension at the right armpit (number of inoculated cells: 2×10^6). The mice were randomized into 6 groups the next day after inoculation, cisplatin implant or excipient control was implanted near the tumor at the seventh day after inoculation. The positive control group received an intraperitoneal injection of cisplatin the next day after inoculation, and four injections in total at an interval of twice a week. The negative control group received an intraperitoneal injection of normal saline the next day after inoculation, and four injections in total at an interval of twice a week. The mice were sacrificed at the 15th day after inoculation, and the tumor mass were peeled and weighted. Tumor growth inhibition rate was calculated using the following equation: […]

[1] = test system: Pancreatic cancer cell line PC3; assay: Tumor size, pancreatic cancer PC3 in nude mice; details: Group B, i.v. 10 mg/kg
Protocol: Fluorouracil implant composition prepared according to Example 2 was tested for its efficacy on pancreatic cancer. Pancreatic cancer cell line PC3 was cultured and inoculated subcutaneously to 70 nude mice at the right armpit at the dose of 2×10^6 cells per inoculation. Tumor grew to the size of about 4 mm×4 mm×4 mm 4 weeks after the implant. 60 nude mice having tumors of similar sizes were selected and randomized into 5 groups with 12 mice in each group: Group A was administered intravenously through the angular vein with normal saline at the dose of 0.1 ml per mice; Group B was administered intravenously through the angular vein with 0.1 ml fluorouracil solution in normal saline at the dose of 10 mg/kg; Group C was implanted with blank matrix; Group D was implanted with fluorouracil implant composition into the pancreatic tumor mass at the dose of 4 mg/kg; and Group E was implanted with fluorouracil implant composition into the pancreatic tumor mass at the dose of 1 mg/kg. The size of the tumor mass was measured before and after treatment.

SGC-7901 tumor = assay: Tumor growth inhibition, SGC-7901 tumor in nude mice; details: 1.6 mg ip, four injections; 21st day after inoculation
Protocol: Fluorouracil implant prepared according to Example 2 were used in this study. SGC-7901 tumor tissues at vigorous growth stage were obtained and cut into pieces of about 1.5 mm^3. The tumor tissue pieces were inoculated subcutaneously to the right armpit of nude mice, under sterile conditions. The mice were randomized into 6 groups at the sixth day after inoculation. Three groups were treated with different doses of fluorouracil implant prepared according to Example 2. Another group was treated with excipient at the sixth day after noculation. The fluorouracil implant or excipient was implanted subcutaneously near the tumor. The positive group received four intraperitoneal injections of fluorouracil in total at an interval of twice a week. The negative control group received four intraperitoneal injections of normal saline in total at an interval of twice a week. The mice were sacrificed at the 21st day after inoculation, and the tumor mass were peeled and weighed. The tumor growth inhibition rate was calculated using the following equation: […]

| SMILES | Tumor growth inhibition rate (%) (H22 tumor cell) | Tumor weight X ± SD (H22 tumor cell) | tumor size ([1]; 3rd day) | tumor size ([1]; 6th day) | tumor size ([1]; 10th day) | tumor size ([1]; 14th day) | tumor size ([1]; Before treatment) | Tumor growth inhibition rate (%) (SGC-7901 tumor) | Tumor weight X ± SD (SGC-7901 tumor) |
| --- | --- | --- | --- | --- | --- | --- | --- | --- | --- |
| N.N.[Cl][Pt][Cl] [cisplatin] | 19.68% | 2.98 ± 1.14 g |  |  |  |  |  |  |  |
| O=c1[nH]cc(F)c(=O)[nH]1 [fluorouracil] |  |  | 72.3 mm^3 | 96.62 ± 20.5 mm^3 | 107.3 ± 20.9 mm^3 | 121.6 ± 14.3 mm^3 | 61.5 ± 8.7 mm^3 | 75.76% | 0.71 ± 0.42 g |

Reference: patent publication US10335370B2, “Controlled release composition” (priority 2008, dated 2019)
